Tested on: full-length JFH-1 replicon
Assay: replicon model, intracellular HCV RNA by RT-qPCR
Assay type: cell-based, hepatitis C virus in Huh-7 cells
Conditions: peptides 20 µM, controls 1 µM, 48 hours

SMILES | intracellular HCV RNA levels in replicon cells
C[C@@]1(O)[C@H](O)[C@@H](CO)O[C@H]1n1ccc(N)nc1=O [Peptide 2-CMC, 2’-C-methylcytidine] | efficiently reduced HCV RNA levels
COc1ccc2c(O[C@@H]3C[C@H]4C(=O)N[C@]5(C(=O)O)C[C@H]5/C=C\CCCCC[C@H](NC(=O)OC5CCCC5)C(=O)N4C3)cc(-c3csc(NC(C)C)n3)nc2c1 [BILN2061] | efficiently reduced HCV RNA levels
